Entries after “also recorded” stand apart in the source; their conditions may differ.
How the values were obtained:
[1] = test system: experimental periodontitis model mice; assay: bone regeneration in experimental periodontitis model mice (teeth ligated with silk threads); format: in vivo, mouse; conditions: 22-month-old aging mice; 20 mg/kg intraperitoneally once; 5 days regeneration period
Excerpt: Experimental periodontitis model mice in which teeth are ligated with silk threads are useful models for inflammatory bone destruction research because inflammations and bone resorption occur in about 10 days after the ligation. The above-described experimental periodontitis models were produced by using 6-week-old wild-type mice (N=8, male C57BL/6N mice, manufactured by CLEA Japan, Inc.), 22-month-old aging mice (N=4, male C57BL/6N mice, manufactured by CLEA Japan, Inc.), and 6-week-old DEL-1-deficient mice (N=8, male C57BL/6N mice (manufactured by CLEA Japan, Inc.), a method for producing the deficient mice was as described in Non Patent Document 1), the silk threads were removed 10 days after the ligation, a remission phase of inflammation of 5 days passed, and in the wild-type mice, new bone formation was recognized at the site of resorbed bone defect while no repair mechanism of the periodontal tissue by DEL-1 was recognized.
The experimental periodontitis models described in Example 1 were produced by using 6-week-old wild-type mice (N=8, male C57BL/6N mice, manufactured by CLEA Japan, Inc.), 22-month-old aging mice (N=4, male C57BL/6N mice, manufactured by CLEA Japan, Inc.), and 6-week-old DEL-1-deficient mice (N=8, male C57BL/6N mice (manufactured by CLEA Japan, Inc.), a method for producing the deficient mice was as described in Non Patent Document 1), the silk threads were removed 10 days after the ligation to experimentally induce periodontitis, subsequently a bone regeneration period of 5 days was provided, and then the amount of regeneration of resorbed bone was measured using a stereomicroscope and image measurement software (manufactured by Nikon Corporation). Erythromycin (10 mg/kg) and ethanol (final concentration 0.1% by mass) were intraperitoneally administered once after the removal of the silk threads. In addition, DEL-1 (1 μg) and Fc control (0.84 μg) were directly inoculated into the gingiva after the removal of the silk threads. The results are shown in FIG. 3 (left: wild-type mice, right: DEL-1-deficient mice) and FIG. 4 (aging mice).
Next, the experimental periodontitis model described in Example 1 was produced by using 22-month-old aging mice (N=4, male C57BL/6N mouse, manufactured by CLEA Japan, Inc.), the silk threads were removed 10 days after the ligation to experimentally induce periodontitis, subsequently a bone regeneration period of 5 days was provided, and the amount of regeneration of resorbed bone was measured using a stereomicroscope and image measurement software (manufactured by Nikon Corporation). Erythromycin (ERM) (20 mg/kg), azithromycin (AZM) (20 mg/kg), clarithromycin (CLM) (20 mg/kg), and ethanol (final concentration 0.1% by mass) as a control were intraperitoneally administered once after the removal of the silk threads. […] In addition, there was no difference in the amount of bone regeneration between the macrolide antimicrobial agent-administered groups.

osteoblasts = assay: bone nodule measurement in osteoblasts (Alizarin red S); format: cell-based, mouse; conditions: osteoblasts derived from wild-type mice; 10 μg/mL each; 15 days
Method: Next, from the cranial bones of 3-day-old wild-type mice (N=6, male C57BL/6N mice, manufactured by CLEA Japan, Inc.) and 3-day-old DEL-1-deficient mice (N=6, male C57BL/6N mice (manufactured by CLEA Japan, Inc.), a method for producing the deficient mice was as described in Non Patent Document 1), osteoblasts were isolated by allowing 0.1% by mass of type 1 collagenase and 0.2% by mass of dispase to act at 37° C. for 20 minutes, and the cells were cultured in α-MEM and a bone differentiation medium (containing 50 μg/ml ascorbic acid and 10 mM β-glycerol 2-phosphate). Ethanol (final concentration 0.1% by mass) and erythromycin (10 μg/mL) were added into the medium in which the osteoblasts (1×10^4 cells/mL) derived from the wild-type mice or the DEL-1-deficient mice were cultured. The medium was exchanged every 3 days, and after 15 days, the cells were stained with Alizarin red S, followed by performing of bone nodule measurement.
Next, the proportion (%) of bone nodules with respect to the observation region in the above-described osteoblasts was calculated from microscopic images by using image processing software (NIH Image). In addition, RNA was extracted from each of the osteoblasts by using an RNeasy Kit (manufactured by QIAGEN NV), subsequently cDNA was synthesized by using a cDNA synthesis kit (manufactured by Thermo Fisher Scientific, Inc.), and the relative expression levels of RUNX2 mRNA, Sp7 mRNA, and Bglap mRNA, which are important for bone regeneration, were checked by an RT-PCR method (Quantstudio3, Thermo Fisher Scientific, Inc.). Regarding primers, designed primers manufactured by Thermo Fisher Scientific, Inc. were used. The Assay IDs of the primers used are shown below.
(Bone regeneration-inducing effect 2 by various macrolide antimicrobial agents) From the cranial bones of 3-day-old wild-type mice (N=6, male C57BL/6N mice, manufactured by CLEA Japan, Inc.), osteoblasts were isolated by allowing 0.1% by mass of type 1 collagenase and 0.2% by mass of dispase to act at 37° C. for 20 minutes, and the cells were cultured in α-MEM and a bone differentiation medium (containing 50 μg/ml ascorbic acid and 10 mM β-glycerol 2-phosphate). Ethanol (final concentration 0.1% by mass), or erythromycin, clarithromycin, or azithromycin (10 μg/mL each) was added into the medium in which the osteoblasts (1×10^4 cells/mL) derived from the wild-type mice were cultured. The medium was exchanged every 3 days, and after 15 days, the cells were stained with Alizarin red S, followed by performing of bone nodule measurement. The results are shown in FIG. 11 In FIG. 11, the symbol * indicates p<0.05, and the symbol ** indicates p<0.01. In addition, the control is an ethanol (final concentration 0.1% by mass)-added group.

[2] = test system: iCell mesenchymal stem cells; assay: bone nodule measurement in mesenchymal stem cells induced from human iPS cells; format: cell-based; conditions: 10 μg/mL for each; 15 days; bone differentiation medium
Method: iCell (registered trademark) mesenchymal stem cells (iCell (registered trademark) MSCs) (#01279, manufactured by Fujifilm Corporation) (1×10^4 cells/mL) obtained by inducing human mesenchymal stem cells from iPS cells, were cultured in α-MEM and a bone differentiation medium (containing 50 μg/mL ascorbic acid and 10 mM β-glycerol 2-phosphate). Ethanol (final concentration 0.1% by mass), or erythromycin, clarithromycin, or azithromycin (10 μg/mL for each) was added to the medium. The medium was exchanged every 3 days, and after 15 days, the cells were stained with Alizarin red S, followed by performing of bone nodule measurement. The results are shown in FIG. 18 (stained images) and FIG. 19 (graph showing the proportion of bone nodules). In FIG. 18 and FIG. 19, the ethanol (final concentration 0.1% by mass)-added group is a control. In FIG. 19, the symbol * indicates p≤0.05, the symbol ** indicates p≤0.01, the symbol *** indicates p≤0.001, and the symbol **** indicates p≤0.0001.

[3] = test system: bone defects in the jawbones; assay: jawbone defect regeneration in cynomolgus monkeys (microCT); format: in vivo; conditions: 200 μg at bone defect site, one month
Method: Bone defects with a diameter of 2 cm and a depth of 2 cm were artificially produced in the jawbones of young (2 years old) and aged (10 years old) cynomolgus monkeys by using a round steel bar. Next, 200 μg of each of erythromycin, clarithromycin, and azithromycin were added to the bone defect sites. As controls, a non-administered group and a group administered with 200 μg of REGROTH (registered trademark), which has been approved as a bone regenerative agent, were also prepared. The amount of bone regeneration after one month from the administration of each drug was checked by using microCT. In FIG. 10, the symbol * indicates p<0.01.

[4] = aged (10 years old) cynomolgus monkeys
[5] = young (2 years old) cynomolgus monkeys

SMILES | bone regeneration (FIG. 9) [1] | formation of bone nodules (FIG. 11) (osteoblasts) | formation of bone nodules (FIG. 18, FIG. 19) [2] | bone regeneration effect (FIG. 10) [3, 4] | bone regeneration effect (FIG. 10) [3, 5]
CC[C@H]1OC(=O)[C@H](C)[C@@H](O[C@H]2C[C@@](C)(OC)[C@@H](O)[C@H](C)O2)[C@H](C)[C@@H](O[C@@H]2O[C@H](C)C[C@H](N(C)C)[C@H]2O)[C@](C)(OC)C[C@@H](C)C(=O)[C@H](C)[C@@H](O)[C@]1(C)O [clarithromycin] | bone regeneration was recognized | the formation of bone nodules was recognized | the formation of bone nodules was recognized | a bone regeneration effect was recognized | a bone regeneration effect was recognized
CC[C@H]1OC(=O)[C@H](C)[C@@H](O[C@H]2C[C@@](C)(OC)[C@@H](O)[C@H](C)O2)[C@H](C)[C@@H](O[C@@H]2O[C@H](C)C[C@H](N(C)C)[C@H]2O)[C@](C)(O)C[C@@H](C)CN(C)[C@H](C)[C@@H](O)[C@]1(C)O [azithromycin] | bone regeneration was recognized | the formation of bone nodules was recognized; also recorded: particularly favorable | the formation of bone nodules was recognized | a bone regeneration effect was recognized | a bone regeneration effect was recognized
